Results on 55 molecules are retold here after patent publication US7291612B2, “Immunomodulatory compounds” (Active Biotech A.B., priority 2002, dated 2007).

As usually defined, the EC50 is the concentration that produces a half-maximal response.

The first assay addresses T1, CD80-CD28 interaction (Homo sapiens, UniProt P33681).
T1 construct: mouse Fab fragment (fusion partner)
T1 sequence (P33681 35-242 limits assumed): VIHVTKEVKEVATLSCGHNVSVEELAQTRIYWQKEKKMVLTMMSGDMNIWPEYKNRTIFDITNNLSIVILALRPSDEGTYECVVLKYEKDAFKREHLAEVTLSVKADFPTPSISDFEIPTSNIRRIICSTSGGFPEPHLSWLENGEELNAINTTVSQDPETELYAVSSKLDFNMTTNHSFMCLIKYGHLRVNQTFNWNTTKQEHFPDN
Briefly: cell free Homogenous Time Resolved Fluorescence (HTRF) assay, inhibition of the CD80-CD28 interaction. In kind it is binding. The following applies: 4 hours at room temperature, read-out: Activity (EC50 in summary form). How it is done: The examples described above were tested in a cell free Homogenous Time Resolved Fluorescence (HTRF) assay to determine their activity as inhibitors of the CD80-CD28 interaction.
In the assay, europium and allophycocyanin (APC) are associated with CD28 and CD80 indirectly (through antibody linkers) to form a complex, which brings the europium and APC into close proximity to generate a signal. The complex comprises the following six proteins: fluorescent label 1, linker antibody 1, CD28 fusion protein, CD80 fusion protein, linker antibody 2, and fluorescent label 2. The table below describes these reagents in greater detail.
On formation of the complex, europium and APC are brought into proximity and a signal is generated.
Non-specific interaction was measured by substituting a mouse Fab fragment (C215) for the CD80 mouse Fab fragment fusion protein (1.9 μg/ml). The assay was carried out in black 384 well plates in a final volume of 30 μl. Assay buffer: 50 mM Tris-HCl, 150 mM NaCl pH7.8, containing 0.1% BSA (w/v) added just prior to use.
Compounds were added to the above reagents in a concentration series ranging between 100 μM-1.7 nM. The reaction was incubated for 4 hours at room temperature. Dual measurements were made using a Wallac Victor 1420 Multilabel Counter. First measurement: excitation 340 nm, emission 665 nm, delay 50 μs, window time 200 μs. second measurement: excitation 340 nm, emission 615 nm, delay 50 μs, window time 200 μs. Counts were automatically corrected for fluorescence crossover, quenching and background.
In general terms: TR-FRET usually uses a lanthanide donor and a delayed reading to cut background.
In the case of `CN(CC(=O)Nc1ccc(-n2nc3c4cccc(F)c4[nH]cc-3c2=O)cc1)Cc1ccccc1` [Example 49], the EC50 was 1 to 10 µM. The same measure, in the same setting: next, `O=c1c2c[nH]c3c(F)cccc3c-2nn1-c1ccc(NC(=S)NC2CCCCC2)cc1` [Example 149]: > 10 µM; `COCCCNC(=O)c1cccc(-n2nc3c4cccc(F)c4[nH]cc-3c2=O)c1` [Example 50, 3-(6-Fluoro-3-oxo-3,5-dihydro-pyrazolo[4,3-c]quinolin-2-yl)-N-(3-methoxy-propyl)-benzamide]: 1 to 10 µM.

`CCOC(=O)CNC(=O)Nc1ccc(-n2nc3c4cccc(F)c4[nH]cc-3c2=O)cc1` [Example 142, {3-[4-(6-Fluoro-3-oxo-3,5-dihydro-pyrazolo[4,3-c]quinolin-2-yl)-phenyl]-ureido} acetic acid ethyl ester]: the EC50 was < 1 µM. On the same count and under the same terms, for `O=C(CNCCCn1ccnc1)Nc1ccc(-n2nc3c4cccc(F)c4[nH]cc-3c2=O)cc1` [Example 40] the value was 1 to 10 µM. In the case of `CN(C)CCCN(C)C(=O)c1ccc(-n2nc3c4ccccc4[nH]cc-3c2=O)cc1` [Example 89], the EC50 is 1 to 10 µM. On to `CCC(CC)C(=O)Nc1ccc(-n2nc3c4cccc(F)c4[nH]cc-3c2=O)cc1` [Example 18], for which the EC50 was < 1 µM.

Regarding `COC(=O)CC[C@H](N)C(=O)Nc1ccc(-n2nc3c4cccc(F)c4[nH]cc-3c2=O)cc1` [Example 38], the EC50 fell in the range of 1 to 10 µM. `CC(C)(C)C(=O)Nc1ccc(-n2nc3c4cccc(F)c4[nH]cc-3c2=O)cc1` [Example 7, N-[4-(6-Fluoro-3-oxo-3,5-dihydro-pyrazolo[4,3-c]quinolin-2-yl)-phenyl]-2,2-dimethyl-propionamide]: the EC50 is 1 to 10 µM.

Consider `CC(=O)OC(C)(C)C(=O)Nc1ccc(-n2nc3c4cccc(F)c4[nH]cc-3c2=O)cc1` [Example 22], for which the EC50 was < 1 µM.

For `CC(C)(C)NC(=O)Nc1ccc(-n2nc3c4cccc(F)c4[nH]cc-3c2=O)cc1` [Example 146], the EC50 is < 1 µM. As for `COC(=O)[C@@H](NC(=O)Nc1ccc(-n2nc3c4ccccc4[nH]cc-3c2=O)cc1)C(C)C` [Example 162], the EC50 is < 1 µM. Take `O=C(CNCCc1ccccn1)Nc1ccc(-n2nc3c4cccc(F)c4[nH]cc-3c2=O)cc1` [Example 36]: the EC50 lay within 1 to 10 µM. With `O=C(CC1CCCC1)Nc1ccc(-n2nc3c4cccc(F)c4[nH]cc-3c2=O)cc1` [Example 19], the EC50 is 1 to 10 µM. In the case of `CN(C)CCCNC(=O)c1ccc(-n2nc3c4ccccc4[nH]cc-3c2=O)cc1` [Example 86], the EC50 was < 1 µM.

As to `O=C(NCCCNC1CCCCC1)c1ccc(-n2nc3c4ccccc4scc-3c2=O)cc1` [Example 166, N-[(cyclohexylamino)propyl]-4-(3-oxothiochromeno[4,3-c]pyrazol-2(3H)-yl)benzamide], the EC50 was < 1 µM.

With `CCN(CC)CCCCNC(=O)c1ccc(-n2nc3c4cccc(F)c4[nH]cc-3c2=O)cc1` [Example 124], the EC50 was < 1 µM. Regarding `O=C(NCC1CCCCC1)c1ccc(-n2nc3c4cccc(F)c4[nH]cc-3c2=O)cc1` [Example 76], the EC50 was 1 to 10 µM.

As to `CCSCCNC(=O)c1ccc(-n2nc3c4cccc(F)c4[nH]cc-3c2=O)cc1` [Example 120], the EC50 is < 1 µM. For the molecule `CC(C)(C)OC(=O)Nc1ccc(-n2nc3c4cccc(F)c4[nH]cc-3c2=O)cc1` [Example 150], the EC50 was < 1 µM. `COC(=O)CCCCCCCCC(=O)Nc1ccc(-n2nc3c4cccc(F)c4[nH]cc-3c2=O)cc1` [Example 23]: the EC50 lay in the range of 1 to 10 µM. Consider `CN(C)CCCNC(=O)c1ccc(-n2nc3c4cccc(F)c4[nH]cc-3c2=O)c(Cl)c1` [Example 103], for which the EC50 lay in the range of 1 to 10 µM. Take `O=C(CN1CCCCC1)Nc1ccc(-n2nc3c4cccc(F)c4[nH]cc-3c2=O)cc1` [Example 42]: the EC50 lay within 1 to 10 µM. Same read-out and setting: next, `O=C(CN1CCN(Cc2ccc(F)cc2)CC1)Nc1ccc(-n2nc3c4cccc(F)c4[nH]cc-3c2=O)cc1` [Example 48]: 1 to 10 µM; `CN(CCCNCC(=O)Nc1ccc(-n2nc3c4cccc(F)c4[nH]cc-3c2=O)cc1)c1ccccc1` [Example 31]: > 10 µM; `O=C(NCCCCN1CCCC1)c1ccc(-n2nc3c4cccc(F)c4scc-3c2=O)cc1` [Example 171, N-(pyrrolidin-1-yl-butyl)-4-(6-fluoro-3-oxothiochromeno[4,3-c]pyrazol-2(3H)-yl)benzamide]: < 1 µM. Turning to `CN(C)CCCC(=O)Nc1ccc(-n2nc3c4cccc(F)c4[nH]cc-3c2=O)cc1` [Example 30], the EC50 was < 1 µM.

With `CC(C)C(=O)Nc1ccc(-n2nc3c4cccc(F)c4[nH]cc-3c2=O)cc1` [Example 24], the EC50 was < 1 µM. On to `CCCC(C)C(=O)Nc1ccc(-n2nc3c4cccc(F)c4[nH]cc-3c2=O)cc1` (centres unmarked) [Example 2, 2-Methyl-pentanoic acid [4-(6-fluoro-3-oxo-3,5-dihydro-pyrazolo[4,3-c]quinolin-2-yl)-phenyl]-amide], for which the EC50 is < 1 µM.

For `CN1CCN(C(=O)c2ccc(-n3nc4c5cccc(F)c5[nH]cc-4c3=O)cc2)CC1` [Example 111], the EC50 lay within 1 to 10 µM. Same read-out and setting: for `CCCNC(=O)Nc1ccc(-n2nc3c4ccccc4[nH]cc-3c2=O)cc1` [Example 159] the value was < 1 µM; for `COCCOCC(=O)Nc1ccc(-n2nc3c4cccc(F)c4[nH]cc-3c2=O)cc1` [Example 25], 1 to 10 µM; for `O=C(Nc1ccc(-n2nc3c4cccc(F)c4[nH]cc-3c2=O)cc1)c1ccno1` [Example 28], 1 to 10 µM.

As for `CC(N)C(=O)Nc1ccc(-n2nc3c4cccc(F)c4[nH]cc-3c2=O)cc1` (centres unmarked) [Example 46], the EC50 is < 1 µM. On to `CCCCCNC(=S)Nc1ccc(-n2nc3c4cccc(F)c4[nH]cc-3c2=O)cc1` [Example 156], for which the EC50 was in the range of 1 to 10 µM. Same read-out and setting: next, `O=C(NCCCCN1CCCC1)c1ccc(-n2nc3c4cccc(F)c4[nH]cc-3c2=O)cc1` [Example 82]: < 1 µM; `CC1(C)CC(NC(=O)c2ccc(-n3nc4c5cccc(F)c5[nH]cc-4c3=O)cc2)CC(C)(C)N1` [Example 118]: < 1 µM.

Take `O=C(NCCCN1CCCC1)c1ccc(-n2nc3c4cccc(F)c4[nH]cc-3c2=O)cc1` [Example 83]: the EC50 is < 1 µM. `COC(=O)CNC(=O)c1ccc(-n2nc3c4cccc(F)c4[nH]cc-3c2=O)cc1` [Example 72]: the EC50 was < 1 µM.

Consider `CN1C2CCC1CC(NC(=O)c1ccc(-n3nc4c5cccc(F)c5[nH]cc-4c3=O)cc1)C2` (centres unmarked) [Example 131], for which the half-maximal effective concentration (EC50) was < 1 µM. Still for that read-out and setting: for `O=C(CNC1CCCCNC1=O)Nc1ccc(-n2nc3c4cccc(F)c4[nH]cc-3c2=O)cc1` (centres unmarked) [Example 37] the value was 1 to 10 µM.

On to `CC1CCCCN1CCCNC(=O)c1ccc(-n2nc3c4cccc(F)c4[nH]cc-3c2=O)cc1Cl` (centres unmarked) [Example 108], for which the EC50 lay within 1 to 10 µM. On the same count and under the same terms, for `O=C(NC1CCN(Cc2ccccc2)CC1)c1ccc(-n2nc3c4cccc(F)c4[nH]cc-3c2=O)cc1` [Example 116] the value was < 1 µM; for `CC(C)CC(=O)Nc1ccc(-n2nc3c4cccc(F)c4[nH]cc-3c2=O)cc1` [Example 4, N-[4-(6-Fluoro-3-oxo-3,5-dihydro-pyrazolo[4,3-c]quinolin-2-yl)-phenyl]-3-methyl-butyramide], 1 to 10 µM.

As for `O=C(NCCN1CCOCC1)c1ccc(-n2nc3c4cccc(F)c4[nH]cc-3c2=O)cc1` [Example 113], the EC50 is < 1 µM. With `O=C(NCCCCN1CCCC1)c1ccc(-n2nc3c4cccc(F)c4[nH]cc-3c2=O)c(Cl)c1` [Example 99], the EC50 lay within 1 to 10 µM. On to `CN1CCN(CCCNC(=O)c2ccc(-n3nc4c5cccc(F)c5[nH]cc-4c3=O)cc2Cl)CC1` [Example 100], for which the EC50 is 1 to 10 µM.

Regarding `CC(C)N(CCNCC(=O)Nc1ccc(-n2nc3c4cccc(F)c4[nH]cc-3c2=O)cc1)C(C)C` [Example 41], the EC50 is 1 to 10 µM. As for `CC(N)C(=O)Nc1ccc(-n2nc3c4ccccc4[nH]cc-3c2=O)cc1` (centres unmarked) [Example 43], the EC50 is 1 to 10 µM. `O=C(NC1CCCCNC1=O)c1ccc(-n2nc3c4cccc(F)c4[nH]cc-3c2=O)cc1` (centres unmarked) [Example 123]: the EC50 lay in the range of 1 to 10 µM.

On to `CCN(CC)CCCCNC(=O)c1ccc(-n2nc3c4ccccc4[nH]cc-3c2=O)cc1` [Example 88], for which the EC50 is 1 to 10 µM. As to `CN1C2CCC1CC(NC(=O)c1ccc(-n3nc4c5cccc(F)c5[nH]c(C5CC5)c-4c3=O)cc1)C2` (centres unmarked) [Example 134], the EC50 was < 1 µM.

Regarding `CN(C)CC(C)(C)CNC(=O)c1ccc(-n2nc3c4cccc(F)c4[nH]cc-3c2=O)cc1` [Example 117], the EC50 was < 1 µM. Take `N[C@H]1CC[C@H](NC(=O)c2cccc(-n3nc4c5cccc(F)c5[nH]cc-4c3=O)c2)CC1` [Example 55]: the EC50 was > 10 µM. On to `CN(C)CCCNC(=O)c1ccc(-n2nc3c4cccc(F)c4[nH]cc-3c2=O)cc1Cl` [Example 90], for which the EC50 fell in the range of 1 to 10 µM.

The assay is the same for the next values; noted with them: read-out: EC50.
For `O=C(NCCCN1CCCC1)c1ccc(-n2nc3c4cccc(F)c4[nH]cc-3c2=O)cc1` [Example 83], the EC50 came to 0.09 µM.
